These results are taken from patent US20120165310A1, “ETHER DERIVATIVES OF BICYCLIC HETEROARYLS” (NOVARTIS AG, priority 2009, published 2012).

In the assay the target is T1, IGF-1R (Homo sapiens, UniProt P08069).
T1 construct: expressed in transfected cells; host or cells: Hek293 (Hek293-IGF1R)
Nature of the assay: Cellular IGF-1R assay: capture ELISA (MSD) of receptor phosphorylation in Hek293 cells. In kind it is cell-based. As to conditions: Hek293-IGF1R cells, 1 h pre-incubation, 10 min IGF stimulation, pIGF1R capture ELISA. A digest of the protocol: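 IC50 from 4-parameter fit of IGF1R phosphorylation, normalised to IGF-stimulated and unstimulated controls, measured by MSD capture ELISA on lysates. Hek293-IGF1R cells in starvation medium got compound 1 h (top 10 μM, 3-fold steps, 0.1% DMSO) before a 10 min pulse of 1.0 ng/μL IGF.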

The structures appear in SMILES notation.

T1 sequence (P08069 31-1367): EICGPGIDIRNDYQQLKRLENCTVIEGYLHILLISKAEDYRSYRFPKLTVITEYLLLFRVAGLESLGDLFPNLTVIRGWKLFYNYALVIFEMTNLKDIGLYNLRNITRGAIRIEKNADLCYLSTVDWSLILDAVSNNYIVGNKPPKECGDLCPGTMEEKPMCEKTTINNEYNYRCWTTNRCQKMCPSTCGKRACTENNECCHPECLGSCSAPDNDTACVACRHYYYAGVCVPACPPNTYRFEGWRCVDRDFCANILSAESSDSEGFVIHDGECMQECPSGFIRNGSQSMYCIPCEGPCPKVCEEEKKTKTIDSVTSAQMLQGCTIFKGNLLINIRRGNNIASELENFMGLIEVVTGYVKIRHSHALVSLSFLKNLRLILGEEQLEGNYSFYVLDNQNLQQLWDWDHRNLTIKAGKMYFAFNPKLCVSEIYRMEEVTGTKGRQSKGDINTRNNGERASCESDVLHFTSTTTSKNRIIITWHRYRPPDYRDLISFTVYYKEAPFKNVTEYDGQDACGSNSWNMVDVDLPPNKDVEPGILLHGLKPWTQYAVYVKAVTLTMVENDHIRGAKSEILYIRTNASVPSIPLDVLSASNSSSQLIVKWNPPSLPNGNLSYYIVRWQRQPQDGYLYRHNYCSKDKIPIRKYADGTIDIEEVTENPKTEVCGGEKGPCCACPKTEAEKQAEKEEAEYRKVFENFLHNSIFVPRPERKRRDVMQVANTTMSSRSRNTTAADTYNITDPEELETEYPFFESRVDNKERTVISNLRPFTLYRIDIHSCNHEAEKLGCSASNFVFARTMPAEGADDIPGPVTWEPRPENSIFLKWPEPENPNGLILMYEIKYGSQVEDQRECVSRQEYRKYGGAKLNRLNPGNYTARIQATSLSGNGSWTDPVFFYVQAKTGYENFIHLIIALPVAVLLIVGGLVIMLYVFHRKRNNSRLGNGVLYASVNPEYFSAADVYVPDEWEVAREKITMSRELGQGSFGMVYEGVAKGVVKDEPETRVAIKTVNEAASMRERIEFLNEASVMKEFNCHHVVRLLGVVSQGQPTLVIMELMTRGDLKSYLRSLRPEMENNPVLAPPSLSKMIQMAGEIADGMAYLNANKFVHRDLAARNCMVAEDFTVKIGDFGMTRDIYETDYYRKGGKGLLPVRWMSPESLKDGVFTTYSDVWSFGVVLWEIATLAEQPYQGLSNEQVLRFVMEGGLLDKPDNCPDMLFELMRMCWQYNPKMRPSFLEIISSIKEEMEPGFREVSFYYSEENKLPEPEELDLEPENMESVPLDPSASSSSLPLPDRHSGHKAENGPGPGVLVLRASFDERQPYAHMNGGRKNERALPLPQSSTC

Molecule `NC(=O)[C@@H]1[C@H]2CC[C@H](C2)N1CC1CC(n2cc(-c3cccc(OCC45CCC(CC4)O5)c3)c3c(N)ncnc32)C1` (stereo partly drawn) [Example 104, (1R,3S,4S)-2-(((1S,3R)-3-(5-(3-(7-oxabicyclo[2.2.1]heptan-1-ylmethoxy)phenyl)-4-amino-7H-pyrrolo[2,3-d]pyrimidin-7-yl)cyclobutyl)methyl)-2-azabicyclo[2.2.1]heptane-3-carboxamide] yielded an IC50 of 6 nM. In the case of `CC1(O)CC(n2cc(-c3cccc(OCC45CCC(CC4)O5)c3)c3c(N)ncnc32)C1` (centres unmarked) [Example 219, (E)-3-(4-amino-5-[3-(7-oxa-bicyclo[2.2.1]hept-1-ylmethoxy)-phenyl]-pyrrolo[2,3-d]pyrimidin-7-yl}-1-methyl-cyclobutanol], the half-maximal inhibitory concentration (IC50) amounted to 579 nM. In the case of `Nc1ncnc2c1c(-c1cccc(OCC34CCC(CC3)O4)c1)cn2C1CCC(N2CCC(O)C2)CC1` [Example 127, (S)-1-((1S,4S)-4-(5-(3-(7-oxabicyclo[2.2.1]heptan-1-ylmethoxy)phenyl)-4-amino-7H-pyrrolo[2,3-d]pyrimidin-7-yl)cyclohexyl)pyrrolidin-3-ol] it was 374 nM; in that of `Nc1ncnc2c1c(-c1cccc(OCC34CCC(CC3)O4)c1)cn2[C@H]1C[C@H](O)C1` [Example 222, (E)-3-{4-amino-5-[3-(7-oxa-bicyclo[2.2.1]hept-1-ylmethoxy)-phenyl]-pyrrolo[2,3-d]pyrimidin-7-yl}-cyclobutanol], 352 nM. To `Nc1ncnc2c1c(-c1cccc(OCC34CCC(CC3)O4)c1)cn2[C@H]1CC[C@@H](N2CCC(F)(F)CC2)CC1` [Example 116, 5-(3-(7-oxabicyclo[2.2.1]heptan-1-ylmethoxy)phenyl)-7-((1S,4S)-4-(4,4-difluoropiperidin-1-yl)cyclohexyl)-7H-pyrrolo[2,3-d]pyrimidin-4-amine] belongs 224 nM. As to `CC1(C)CCC(COc2cccc(-c3cn(C4CC(CN5CCC(F)C5)C4)c4ncnc(N)c34)c2)O1` (single isomer, unassigned) [Example 45], the IC50 worked out at 35 nM. In turn, `NC(=O)[C@@H]1[C@@H]2C[C@@H]2CN1CC1CC(n2cc(-c3cccc(OCC4CCCCO4)c3)c3c(N)ncnc32)C1` (stereo partly drawn) [Example 102, (1R,2S,5S)-3-(((1S,3R)-3-(4-amino-5-(3-((tetrahydro-2H-pyran-2-yl)methoxy)phenyl)-7H-pyrrolo[2,3-d]pyrimidin-7-yl)cyclobutyl)methyl)-3-azabicyclo[3.1.0]hexane-2-carboxamide] yielded an IC50 of 43 nM.

Molecule `Nc1ncnc2c1c(-c1cccc(OCC34CCC(CC3)O4)c1)cn2[C@H]1CC[C@H](N)CC1` (relative stereo) [Example 182, 7-(trans-4-Amino-cyclohexyl)-5-[3-(7-oxa-bicyclo[2.2.1]hept-1-ylmethoxy)-phenyl]-7H-pyrrolo[2,3-d]pyrimidin-4-ylamine] displayed an IC50 of 211 nM.

On to `CC1(C)CCC(COc2cccc(-c3cn([C@H]4C[C@H](CN5CCC[C@@H]5C(N)=O)C4)c4ncnc(N)c34)c2)O1` (stereo partly drawn) [Example 72, (R)-1-(trans-3-{4-amino-5-[3-(5,5-dimethyl-tetrahydro-furan-2-ylmethoxy)-phenyl]pyrrolo[2,3-d]pyrimidin-7-yl}-cyclobutylmethyl)-pyrrolidine-2-carboxylic acid amide], for which the IC50 is 57 nM. For `NC(=O)[C@@H]1CCCN1[C@H]1C[C@H](n2cc(-c3cccc(OCC45CCC(CC4)O5)c3)c3c(N)ncnc32)C1` [Example 190, (S)-1-(trans-3-{4-Amino-5-[3-(7-oxa-bicyclo[2.2.1]hept-1-ylmethoxy)-phenyl]-pyrrolo[2,3-d]pyrimidin-7-yl}-cyclobutyl)-pyrrolidine-2-carboxylic acid amide], the IC50 came to 435 nM. `CC1(C)CCC(COc2cccc(-c3cn(C4CC(CN5CCS(=O)(=O)CC5)C4)c4ncnc(N)c34)c2)O1` (centres unmarked) [Example 14, 5-[3-(5,5-dimethyl-tetrahydro-furan-2-ylmethoxy)phenyl]-7-[3-(1,1-dioxothiomorpholin-4-ylmethyl)-cyclobutyl]-7H-pyrrolo[2,3-d]pyrimidin-4-ylamine] came in with a half-maximal inhibitory concentration (IC50) of 17 nM.

`CNC(=O)[C@H]1CCCN1C[C@H]1C[C@@H](n2cc(-c3cccc(OCC4CCCCO4)c3)c3c(N)ncnc32)C1` (stereo partly drawn) [Example 100, (2R)-1-(((1R,3R)-3-(4-amino-5-(3-((tetrahydro-2H-pyran-2-yl)methoxy)phenyl)-7H-pyrrolo[2,3-d]pyrimidin-7-yl)cyclobutyl)methyl)-N-methylpyrrolidine-2-carboxamide] yielded an IC50 of 444 nM. For `CC1(C)CCC(COc2cccc(-c3cn([C@H]4C[C@@H](CN5CCC(F)(F)CC5)C4)c4ncnc(N)c34)c2)O1` (relative stereo) [Example 53, 7-[cis-3-(4,4-difluoro-piperidin-1-ylmethyl)-cyclobutyl]-5-[3-(5,5-dimethyl-tetrahydro-furan-2-ylmethoxy)-phenyl]-7H-pyrrolo[2,3-d]pyrimidin-4-ylamine], the half-inhibitory concentration (IC50) lay in the range of 32 to 37 nM. In the case of `Nc1ncnc2c1c(-c1cccc(OCC34CCC(CC3)O4)c1)cn2C1CC(O)(CN2CCC(O)CC2)C1` (centres unmarked) [Example 192, 1-(3-{4-Amino-5-[3-(7-oxa-bicyclo[2.2.1]hept-1-ylmethoxy)-phenyl]-pyrrolo[2,3-d]pyrimidin-7-yl}-1-hydroxy-cyclobutylmethyl)-piperidin-4-ol] it was 63 nM; in that of `CN1CCN([C@H]2CC[C@@H](n3cc(-c4cccc(OCC56CCC(CC5)O6)c4)c4c(N)ncnc43)CC2)CC1` [Example 109, 5-(3-(7-oxabicyclo[2.2.1]heptan-1-ylmethoxy)phenyl)-7-((1S,4S)-4-(4-methylpiperazin-1-yl)cyclohexyl)-7H-pyrrolo[2,3-d]pyrimidin-4-amine], 101 nM. In turn, `N#Cc1ccnc(N[C@H]2CC[C@@H](n3cc(-c4cccc(OCC56CCC(CC5)O6)c4)c4c(N)ncnc43)CC2)c1` [Example 145, 2-((1S,4S)-4-(5-(3-(7-oxabicyclo[2.2.1]heptan-1-ylmethoxy)phenyl)-4-amino-7H-pyrrolo[2,3-d]pyrimidin-7-yl)cyclohexylamino)isonicotinonitrile] gave a concentration for half-maximal inhibition (IC50) of 229 nM. `CS(=O)(=O)N1CCN(C[C@H]2CC[C@@H](n3cc(-c4cccc(OCC56CCC(CC5)O6)c4)c4c(N)ncnc43)CC2)CC1` [Example 137, 5-(3-(7-oxabicyclo[2.2.1]heptan-1-ylmethoxy)phenyl)-7-((1S,4S)-4-((4-(methylsulfonyl)piperazin-1-yl)methyl)cyclohexyl)-7H-pyrrolo[2,3-d]pyrimidin-4-amine]: half-maximal inhibition (IC50) was put at 164 nM.

Regarding `CC1(C)CCC(COc2cccc(-c3cn([C@H]4C[C@@H](CN5CCC(F)CC5)C4)c4ncnc(N)c34)c2)O1` (single isomer, unassigned) [Example 74, 5-[3-(5,5-dimethyl-tetrahydro-furan-2-ylmethoxy)-phenyl]-7-[cis-3-(4-fluoro-piperidin-1-ylmethyl)-cyclobutyl]-7H-pyrrolo[2,3-d]pyrimidin-4-ylamine], the IC50 turned out to be 52 nM. For `[2H]C([2H])([2H])C(=O)NC[C@H]1C[C@@H](n2cc(-c3cccc(OCC45CCC(CC4)O5)c3)c3c(N)ncnc32)C1` [Example 165, d3-N-(3-{4-amino-5-[3-(7-oxa-bicyclo[2.2.1]hept-1-ylmethoxy)-phenyl]-pyrrolo[2,3-d]pyrimidin-7-yl}-cyclobutylmethyl)-acetamide], the concentration for half-maximal inhibition (IC50) stood at 52 nM. In the case of `Nc1ncnc2c1c(-c1cccc(OCC34CCC(CC3)O4)c1)cn2[C@H]1CC[C@@H](CN2CCOCC2)CC1` [Example 130] it was 45 nM; in that of `CC1(C)CCC(COc2cccc(-c3cn([C@H]4CC[C@H](N5CCOCC5)CC4)c4ncnc(N)c34)c2)O1` (relative stereo) [Example 64, 5-[3-(5,5-dimethyl-tetrahydro-furan-2-ylmethoxy)-phenyl]-7-(trans-4-morpholin-4-yl-cyclohexyl)-7H-pyrrolo[2,3-d]pyrimidin-4-ylamine], 367 nM. Take `Nc1ncnc2c1c(-c1cccc(OCC3CCCO3)c1)cn2[C@H]1C[C@H](CN2CCS(=O)(=O)CC2)C1` (relative stereo) [Example 89, 7-[trans-3-(1,1-Dioxothiomorpholin-4-ylmethyl)-cyclobutyl]-5-[3-(tetrahydro-furan-2-ylmethoxy)-phenyl]-7H-pyrrolo[2,3-d]pyrimidin-4-ylamine]: half-maximal inhibition (IC50) required 316 nM. In the case of `Nc1ncnc2c1c(-c1cccc(OCC34CCC(CC3)O4)c1)cn2[C@H]1C[C@@]2(CNC(=O)O2)C1` [Example 169, (E)-2-{4-amino-5-[3-(7-oxa-bicyclo[2.2.1]hept-1-ylmethoxy)-phenyl]-pyrrolo[2,3-d]pyrimidin-7-yl}-5-oxa-7-aza-spiro[3.4]octan-6-one], inhibition was half-maximal at 66 nM (IC50). Turning to `Nc1ncnc2c1c(-c1cccc(OCC3CCCCO3)c1)cn2C1CC(CN2CCCC2C(O)C(F)(F)F)C1` [Example 120, (1S)-1-((2S)-1-(((1S,3R)-3-(4-amino-5-(3-((tetrahydro-2H-pyran-2-yl)methoxy)phenyl)-7H-pyrrolo[2,3-d]pyrimidin-7-yl)cyclobutyl)methyl)pyrrolidin-2-yl)-2,2,2-trifluoroethanol], the concentration for half-maximal inhibition (IC50) is 195 nM. `NC(=O)[C@@H]1[C@H](O)CCN1C[C@H]1C[C@H](n2cc(-c3cccc(OCC4CCCO4)c3)c3c(N)ncnc32)C1` (relative stereo) [Example 91, (2S,3R)-1(trans-((1R,3S)-3-(4-amino-5-(3-(tetrahydrofuran-2-yl)methoxy)phenyl)-7H-pyrrolo[2,3-d]pyrimidin-7-yl)cyclobutyl)methyl-3-hydroxylpyrrolidine-2-carboxamide] returned a half-inhibitory concentration (IC50) of 108 nM.

In the case of `NC(=O)C1CC(F)CN1CC1CC(n2cc(-c3cccc(OCC4CCCCO4)c3)c3c(N)ncnc32)C1` [Example 97, (2S,4S)-1-(((1S,3R)-3-(4-amino-5-(3-((tetrahydro-2H-pyran-2-yl)methoxy)phenyl)-7H-pyrrolo[2,3-d]pyrimidin-7-yl)cyclobutyl)methyl)-4-fluoropyrrolidine-2-carboxamide], the 50% inhibitory concentration (IC50) was found to be 105 nM.
